According to US7671181B2, “Polynucleotides encoding coccidian parasite casein kinase I, a chemotherapeutic target for antiprotozoal agents” (Merck Sharp & Dohme Corp., priority 2004, dated 2010):
Like-named read-outs stand apart in the source and are kept apart here.

Legend:
[1] = system: T. gondii; test: Parasite growth inhibition, modified [3H]-uracil uptake assay in infected HFF cell monolayers; type: cell-based, Toxoplasma gondii; details: for activity against T. gondii in the uracil uptake (whole cell) assay: cultured parasites, in words
Text: (§1) Host cells and parasite cultures—RH strain or RH ΔHXGPRT strain tachyzoites of T. gondii were maintained by serial passage in confluent monolayers of human foreskin fibroblasts (“HFF”) as described (Roos, D. S. et al., 1994, Methods Cell Biol. 45:27-63). A modified [^3H]-uracil uptake assay (Pfefferkorn, E. R. and Pfefferkorn, L. C., 1977, J. Protozool. 24:449-453) adapted for use in 96-well scintillation plates (Cytostar-T, Amersham; Piscataway, N.J.) was used to measure parasite growth inhibition. Each well, previously seeded with HFF cells, was inoculated with T. gondii tachyzoites (2×10^4) in 200 μl of growth media containing 2 μCi [5,6]-^3H-uracil (Perkin-Elmer NEN; Boston, Mass.) and serially diluted compound. Following incubation at 37° C. for 36-48 hours, tritium-incorporation into host cell monolayers was directly counted in a microplate scintillation counter (MicroBeta, PerkinElmer-Wallac).
The only other CDK inhibitor with sub-μM activity against T. gondii was indirubin-3′-monoxime, which gave an IC50 value of 500 nM.

[2] = system: T. gondii tachyzoites; test: [3H]-uracil uptake assay of parasite growth inhibition in infected HFF cell monolayers; type: cell-based, Toxoplasma gondii; details: for IC50: read-out: IC50 against T. gondii in the uracil uptake assay; for activity against cultured T. gondii parasites: uracil uptake / whole cell assay
Text: as §1

[3] = biological target: T1, TgCKIα (Toxoplasma gondii, UniProt Q6QNM1); test: Casein kinase assay, TgCKIα (recombinant FLAGTgCKIα or partially purified native); type: biochemical; set-up: other: recombinant or native forms of TgCKIα
T1 sequence (Q6QNM1 whole entry, looked up): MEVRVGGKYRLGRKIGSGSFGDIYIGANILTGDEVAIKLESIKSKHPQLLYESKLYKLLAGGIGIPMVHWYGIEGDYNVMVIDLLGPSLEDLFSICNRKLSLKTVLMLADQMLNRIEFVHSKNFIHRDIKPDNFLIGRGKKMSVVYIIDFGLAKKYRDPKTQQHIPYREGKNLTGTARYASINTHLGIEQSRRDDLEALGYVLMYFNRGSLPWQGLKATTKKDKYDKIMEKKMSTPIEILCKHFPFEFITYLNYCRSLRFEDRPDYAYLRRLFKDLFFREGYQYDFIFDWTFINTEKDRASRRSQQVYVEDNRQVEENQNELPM
Protocol: (§2) Protein kinase assays—Casein kinase activity was assayed essentially as described (Donald, R. G. K. et al., 2002, supra) using 96-well phosphocellulose plates (MAPH-NOB, Millipore; Billerica, Mass.) to capture ^33P-phosphorylated peptide or casein substrates. Kinase reactions were carried out in 40 μl volumes containing 25 mM Hepes, pH 7.4, 10 mM MgCl2, 20 mM β-glycerophosphate, 1 mM DTT, 250 μM substrate, 1 mg/mL BSA, 2 μM ATP, and 0.01 μM [γ-^33P]ATP (Perkin-Elmer, 3000 Ci/mmol). […] Casein (5% solution), partially dephosphorylated α-casein and β-casein were obtained from Sigma.
(§3) A variety of commercially available peptide substrates were evaluated. From Calbiochem (San Diego, Calif.): CKI substrate (RRKDLHDDEEDEAMSITA; SEQ ID NO:13); CKII substrate (RRADDSDDDDD; SEQ ID NO:14); Syntide-2 substrate (PLARTLSVAGLPGKK; SEQ ID NO:15); CaM kinase II substrate (281-291) (MHKNETVECLK; SEQ ID NO:16). From Promega: CKI substrate (DDDEESITRR; SEQ ID NO:17) and kemptide (LRRASLG; SEQ ID NO:18). From New England Biolabs (Beverly, Mass.): CKI phosphopeptide substrate (KRRRALS(p)VASLPGL; SEQ ID NO:19), and CKII substrate (RRREEETEEE; SEQ ID NO:20). PKG assays were performed with kemptide as substrate and 10 μM cGMP. CDPK was assayed with Syntide-2 substrate and in the presence of 100 μM CaCl2.
Purification of recombinant CKI enzymes—E. coli strain BL21 Origami™ (Novagen) was transformed with FLAGTgCKIα and FLAGTgCKIβ expression vectors, and colonies were expanded into 250 mL LB cultures grown at 37° C. […] Protein was measured with a micro-BCA reagent (Pierce) following a TCA-sodium deoxycholate step to remove residual FLAG peptide (Brown et al., 1989, Anal. Biochem. 180:136-139). […]
(§4) Preparations of FLAGTgCKIα and FLAGTgCKIβ were purified further on a SMART system FPLC 0.1 mL MonoQ anion exchange column (Pharmacia; New York, N.Y.) equilibrated in buffer A (50 mM Hepes, pH 7.4, 10% glycerol, 1 mM DTT) at room temperature. […] A linear salt gradient was applied (0-500 mM in 3 mL at 100 μl/min) and 100 μl fractions were collected and analyzed by SDS-PAGE and for CKI activity. […]

[4] = biological target: EtCKIα (Eimeria tenella, UniProt Q6QNL9); test: Casein kinase assay, partially purified native EtCKIα; type: biochemical; details: native enzyme
EtCKIα, sequence (Q6QNL9 whole entry): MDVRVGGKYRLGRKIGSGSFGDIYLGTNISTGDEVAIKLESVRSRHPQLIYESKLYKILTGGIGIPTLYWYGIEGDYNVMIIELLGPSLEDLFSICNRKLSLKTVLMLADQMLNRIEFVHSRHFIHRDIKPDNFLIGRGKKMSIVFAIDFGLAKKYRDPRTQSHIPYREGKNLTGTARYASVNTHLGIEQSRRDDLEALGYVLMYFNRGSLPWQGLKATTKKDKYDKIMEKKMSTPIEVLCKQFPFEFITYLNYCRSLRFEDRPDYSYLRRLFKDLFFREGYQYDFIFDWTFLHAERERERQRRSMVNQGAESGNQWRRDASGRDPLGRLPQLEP
Protocol: (§5) Protein kinase assays—Casein kinase activity was assayed essentially as described (Donald, R. G. K. et al., 2002, supra) using 96-well phosphocellulose plates (MAPH-NOB, Millipore; Billerica, Mass.) to capture ^33P-phosphorylated peptide or casein substrates. Kinase reactions were carried out in 40 μl volumes containing 25 mM Hepes, pH 7.4, 10 mM MgCl2, 20 mM β-glycerophosphate, 1 mM DTT, 250 μM substrate, 1 mg/mL BSA, 2 μM ATP, and 0.01 μM [γ-^33P]ATP (Perkin-Elmer, 3000 Ci/mmol). The reactions were initiated by the addition of enzyme and incubated at room temperature for 60 min. Casein (5% solution), partially dephosphorylated α-casein and β-casein were obtained from Sigma.
as §3
Partial purification of native EtCKIα—The inability to stably express recombinant EtCKIα in T. gondii provided impetus to purify native enzyme from E. tenella parasites (slide 5). A lysate was prepared from 2×10^10 unsporulated oocysts using previously published procedures (Gurnett, A. M. et al., 2002, supra). The first two steps of the purification scheme used were essentially scaled-up from the method described for the purification of native TgCKIα. The lysate was subjected to preparative HiLoad Q anion-exchange chromatography and fractions eluted with a NaCl gradient (0-1 M NaCl). […]

[5] = biological target: TgCKIβ (Toxoplasma gondii, UniProt Q6QNM0); test: Casein kinase assay, recombinant FLAGTgCKIβ; type: biochemical; details: substrate titration, 2 μM ATP; for Km: read-out: Km(app), FLAGTgCKIβ
TgCKIβ, sequence (Q6QNM0 entry or part of it): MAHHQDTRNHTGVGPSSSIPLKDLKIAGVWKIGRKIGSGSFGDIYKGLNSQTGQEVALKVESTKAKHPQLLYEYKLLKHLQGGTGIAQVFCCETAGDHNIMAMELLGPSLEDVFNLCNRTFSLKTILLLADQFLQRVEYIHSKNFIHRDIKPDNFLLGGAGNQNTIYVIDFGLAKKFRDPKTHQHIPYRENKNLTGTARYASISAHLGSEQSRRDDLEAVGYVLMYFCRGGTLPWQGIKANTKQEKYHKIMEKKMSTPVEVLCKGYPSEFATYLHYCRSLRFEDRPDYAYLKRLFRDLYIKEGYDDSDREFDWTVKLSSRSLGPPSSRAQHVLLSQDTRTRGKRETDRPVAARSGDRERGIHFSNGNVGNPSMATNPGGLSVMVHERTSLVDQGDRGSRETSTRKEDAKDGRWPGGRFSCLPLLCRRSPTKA
Protocol: as §2, §3
(§6) Purification of recombinant CKI enzymes—E. coli strain BL21 Origami™ (Novagen) was transformed with FLAGTgCKIα and FLAGTgCKIβ expression vectors, and colonies were expanded into 250 mL LB cultures grown at 37° C. Expression was induced with 1 mM IPTG once cultures had reached an OD600nm of 0.3-0.5, and the transformed bacteria were harvested 4-6 hours later. Cell pellets were resuspended in 15 mL of lysis buffer containing protease inhibitors and lysates prepared as described by the supplier (Bugbuster™ reagents, Novagen). The concentration of NaCl in the lysate was adjusted to 0.5 M, and 0.5 mL of FLAG-agarose beads were added (Sigma). The mixture was allowed to rock in a Nutator mixer (Becton-Dickinson; San Jose, Calif.) for 2 hours at 4° C. The slurry was then poured into an empty column and the matrix washed with 50 mL of wash buffer (50 mM Tris-HCl, pH 7.4, 0.5M NaCl, 10% glycerol, 1 mM DTT, 1 mM EDTA). Enzyme was eluted with 5 mL of 0.4 mg/mL FLAG peptide (Sigma) in NaCl-free wash buffer and concentrated with a centrifuge filtration unit (Amicon Ultra®, 10 kDa cut-off, Millipore). Protein was measured with a micro-BCA reagent (Pierce) following a TCA-sodium deoxycholate step to remove residual FLAG peptide (Brown et al., 1989, Anal. Biochem. 180:136-139). Using this procedure, and SDS-PAGE analysis, the yield of FLAGTgCKIβ was estimated as ˜200 μg of enzyme with >90% purity. Purification of FLAGTgCKIα was much less efficient with only about 1 μg of ˜10% pure enzyme obtained per 250 mL bacterial culture.
Preparations of FLAGTgCKIα and FLAGTgCKIβ were purified further on a SMART system FPLC 0.1 mL MonoQ anion exchange column (Pharmacia; New York, N.Y.) equilibrated in buffer A (50 mM Hepes, pH 7.4, 10% glycerol, 1 mM DTT) at room temperature. Samples of FLAG-affinity purified enzyme (10-100 μg) were syringe-passed through a 0.22 μm (pore-size) filter before loading on the column. A linear salt gradient was applied (0-500 mM in 3 mL at 100 μl/min) and 100 μl fractions were collected and analyzed by SDS-PAGE and for CKI activity. Fractions with peak activity were retained for further analysis. The degree of purity of the partially purified FLAGTgCKIα was estimated by densitometry of silver stained SDS-PAGE gels. A recombinant rat CKIδ enzyme used for control purposes was obtained from New England Biolabs.

[6] = biological target: T2, TgCDPK1 (Toxoplasma gondii, UniProt Q9BJF5); test: CDPK assay with Syntide-2, T. gondii CDPK1; type: biochemical; details: read-out: IC50 against the CDPK1 enzyme
T2 construct: The TgCDPK1 open reading frame was amplified by PCR from a Toxoplasma cDNA library; made in house
T2 sequence (Q9BJF5 entry or part of it): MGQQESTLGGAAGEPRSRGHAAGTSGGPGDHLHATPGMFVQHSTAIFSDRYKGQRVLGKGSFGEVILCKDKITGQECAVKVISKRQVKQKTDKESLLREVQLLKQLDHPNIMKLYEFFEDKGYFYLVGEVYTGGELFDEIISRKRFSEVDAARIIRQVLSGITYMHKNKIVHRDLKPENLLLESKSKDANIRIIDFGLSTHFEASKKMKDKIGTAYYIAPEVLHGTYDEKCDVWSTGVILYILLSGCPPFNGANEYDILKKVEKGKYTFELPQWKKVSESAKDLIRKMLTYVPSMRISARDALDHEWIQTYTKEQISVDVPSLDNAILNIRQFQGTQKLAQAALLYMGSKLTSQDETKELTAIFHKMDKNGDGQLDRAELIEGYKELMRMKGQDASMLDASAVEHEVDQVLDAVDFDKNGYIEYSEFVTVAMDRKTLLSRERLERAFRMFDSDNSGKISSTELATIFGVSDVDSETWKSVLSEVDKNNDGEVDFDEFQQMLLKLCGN
Protocol: as §5, §3
Purification of recombinant TgCDPK1 and TgPKG—The TgCDPK1 open reading frame was amplified by PCR from a Toxoplasma cDNA library, using primers based on the published sequence (Kieschnick et al., 2001, supra): sense primer, […] (SEQ ID NO:44); and, antisense primer, […] (SEQ ID NO:45). A C-terminal FLAG epitope tag was appended to the TgCDPK1 open reading frame by an additional round of PCR amplification (KOD polymerase) and the resulting DNA fragment was sub-cloned into a tubulin promoter expression vector (Donald and Liberator, 2002, supra). […]

[7] = biological target: T1, TgCKIα; test: Casein kinase assay, TgCKIα (recombinant FLAGTgCKIα or partially purified native); type: biochemical; set-up: Vmax(app), FLAGTgCKIα; other: substrate titration, 2 μM ATP; Km(app), FLAGTgCKIα; details: substrate titration, 2 μM ATP; for Km: read-out: Km(app), FLAGTgCKIα
Protocol: as §2, §3
as §6, with “Enzyme was eluted with 5 mL of 0.4 mg/mL FLAG peptide (Sigma) in NaCl-free wash buffer and concentrated with a centrifuge filtration unit (Amicon Ultra®, 10 kDa cut-off, Millipore).” left out, “Using this procedure, and SDS-PAGE analysis, the yield of FLAGTgCKIβ was estimated as ˜200 μg of enzyme with >90% purity. Purification of FLAGTgCKIα was much less efficient with only about 1 μg of ˜10% pure enzyme obtained per 250 mL bacterial culture.” left out
as §4

[8] = biological target: T1, TgCKIα; test: as above; type: biochemical; set-up: Km(app), native TgCKIα; other: substrate titration, 2 μM ATP; IC50, nativeTgCKIα; other: partially purified native enzyme from Toxoplasma tachyzoites; sensitivity of native TgCKIα phosphopeptide kinase activity (HiTrapQ fractions 5-9); other: 0.2 μM hymenialdisine or 1; details: substrate titration, 2 μM ATP; read-out: Km(app), native TgCKIα
Protocol: as §2, §3
as §6, with “Enzyme was eluted with 5 mL of 0.4 mg/mL FLAG peptide (Sigma) in NaCl-free wash buffer and concentrated with a centrifuge filtration unit (Amicon Ultra®, 10 kDa cut-off, Millipore).” left out, “Using this procedure, and SDS-PAGE analysis, the yield of FLAGTgCKIβ was estimated as ˜200 μg of enzyme with >90% purity. Purification of FLAGTgCKIα was much less efficient with only about 1 μg of ˜10% pure enzyme obtained per 250 mL bacterial culture.” left out
as §4

Question: What does the source list for CN1CCC(c2cc(-c3ccncc3)c(-c3ccc(F)cc3)[nH]2)CC1 [Compound 1]?
Answer: IC50 ([1]; Toxoplasma gondii, HFF): 200 nM; IC50 ([2]; infected HFF cell monolayers, 36-48 hours): 200 nM

Question: For CC(C)[C@H](CO)Nc1nc(Nc2cc(N)cc(Cl)c2)c2ncn(C(C)C)c2n1 [aminopurvalanol], which IC50 [3] is on record?
Answer: The IC50 was 40 to 60 nM.

Question: And the “activity against / sensitivity of EtCKIα” value [4]?
Answer: Its value is “good activity”.

Question: And the IC50 ([2]; Toxoplasma gondii, HFF)?
Answer: The IC50 was 375 nM.

Question: How did the “activity against cultured T. gondii parasites” value [2] turn out when Cn1cnc2c(NCc3ccccc3)nc(NCCO)nc21 [olomoucine] was run?
Answer: Its value is “no activity”.

Question: What does the source list for CC(C)[C@H](CO)Nc1nc(Nc2cccc(Cl)c2)c2ncn(C(C)C)c2n1 [purvalanol A]?
Answer: activity against T. gondii in the uracil uptake (whole cell) assay [1]: only mediocre activity; activity against cultured T. gondii parasites [2]: mediocre activity

Question: What does the source list for CC[C@H](CO)Nc1nc(NCc2ccccc2)c2ncn(C(C)C)c2n1 [roscovitine]?
Answer: activity against T. gondii in the uracil uptake (whole cell) assay [1]: only mediocre activity; activity against cultured T. gondii parasites [2]: mediocre activity

Question: Which results are given for RRKDLHDDEEDEAMSITA [CKI peptide]?
Answer: Vmax(app), FLAGTgCKIβ [5]: 8 nmol/min/mg; Km [5]: 15 µM

Question: Which results are given for indirubin-3′-monoxime?
Answer: IC50 ([3]; recombinant or native forms of TgCKIα, read-out: IC50 against TgCKIα): 172 nM; IC50 [6]: 175 nM

B1: α-casein: partially dephosphorylated α-casein from Sigma, kinase substrate (protein)
chain: RPKHPIKHQGLPQEVLNENLLRFFVAPFPEVFGKEKVNELSKDIGSESTEDQAMEDIKQMEAESISSSEEIVPNSVEQKHIQKEDVPSERYLGYLEQLLRLKKYKVPQLEIVPNSAEERLHSMKEGIHAQQKEPMIGVNQELAYFYPELFRQFYQLDAYPSGAWYYVPLGTQYTDAPSFSDIPNPIGSENSEKTTMPLW
Question: Which results are given for B1?
Answer: Vmax(app), FLAGTgCKIα [7]: 8 nmol/min/mg; Km [7]: 4 µM; Km [8]: 3 µM; Vmax(app), FLAGTgCKIβ [5]: 12 nmol/min/mg; Km [5]: 5 µM

B2: β-casein: β-casein from Sigma, kinase substrate (protein)
chain: RELEELNVPGEIVESLSSSEESITRINKKIEKFQSEEQQQTEDELQDKIHPFAQTQSLVYPFPGPIPNSLPQNIPPLTQTPVVVPPFLQPEVMGVSKVKEAMAPKHKEMPFPKYPVEPFTESQSLTLTDVENLHLPLPLLQSWMHQPHQPLPPTVMFPPQSVLSLSQSKVLPVPQKAVPYPQRDMPIQAFLLYQEPVLGPVRGPFPIIV
Question: Which “Vmax(app), FLAGTgCKIα” value [7] does the source give for B2 here?
Answer: Its value is 8 nmol/min/mg.

Question: And the Km [7]?
Answer: The Km was 30 µM.

Question: What about the Km [8] of the same molecule?
Answer: Its Km is 13 µM.

Question: And the “Vmax(app), FLAGTgCKIβ” value [5]?
Answer: Its value is 16 nmol/min/mg.

Question: What about the Km [5] of the same molecule?
Answer: Its Km is 12 µM.
